Test results taken from ChEMBL document CHEMBL3813665, “New cytotoxic and anti-inflammatory steroids from the soft coral Klyxum flaccidum” (Bioorg Med Chem Lett, 2016).

Columns and labels:
HT-29 = test: Cytotoxicity against human HT-29 cells by Alamar blue assay; format: functional, cell-based
P388 = test: Cytotoxicity against mouse P388 cells by Alamar blue assay; format: functional, cell-based
K562 = test: Cytotoxicity against human K562 cells by Alamar blue assay; format: functional, cell-based
A549 = test: Cytotoxicity against human A549 cells by Alamar blue assay; format: functional, cell-based
[1] = Cytotoxicity against human DLD1 cells by Alamar blue assay; format: functional, cell-based; conditions: DLD-1
[2] = Antiinflammatory activity in human neutrophils assessed as inhibition of fMLP/CB-induced superoxide anion generation after 5 mins by ferricytochrome c based spectrophotometric analysis; format: functional, cell-based; conditions: Neutrophil
[3] = Antiinflammatory activity in human neutrophils assessed as inhibition of fMLP/CB-induced superoxide anion generation at 10 uM after 5 mins by ferricytochrome c based spectrophotometric analysis; format: functional; conditions: Neutrophil
[4] = Antiinflammatory activity in human neutrophils assessed as inhibition of fMLP/CB-induced elastase release using MeO-Suc-Ala-Ala-Pro-Val-p-nitroanilide as substrate after 5 mins by […] analysis; format: functional, cell-based; conditions: Neutrophil
[5] = Antiinflammatory activity in human neutrophils assessed as inhibition of fMLP/CB-induced elastase release using MeO-Suc-Ala-Ala-Pro-Val-p-nitroanilide as substrate at 10 uM after 5 mins by […] analysis; format: functional; conditions: Neutrophil

| Compound | IC50 (HT-29) | IC50 (P388) | IC50 (K562) | IC50 (A549) | IC50 [1] | IC50 [2] | inhibition at 10 µM [3] | IC50 [4] | inhibition at 10 µM [5] |
| --- | --- | --- | --- | --- | --- | --- | --- | --- | --- |
| CC(C)[C@@H](C)[C@@]1(C)C[C@@H]1[C@@H](C)[C@H]1CC[C@H]2[C@H]3[C@H]([C@H](O)C[C@]12C)[C@@]1(C)CC[C@H](O)CC1=C[C@@H]3O | > 40 µM | > 40 µM | > 40 µM | > 40 µM | > 40 µM | > 10 µM | 11.1% | > 10 µM | 21.8% |
| CC(C)[C@@H](C)[C@@]1(C)C[C@@H]1[C@@H](C)[C@H]1CC[C@H]2[C@@H]3[C@@H](O)C=C4C[C@@H](O)CC[C@]4(C)[C@@]3(O)[C@H](O)C[C@]12C | > 40 µM | > 40 µM | > 40 µM | > 40 µM | > 40 µM | > 10 µM | -5.97% | > 10 µM | 16.4% |
| CC(C)[C@@H](C)[C@H](C)C[C@@](C)(O)C1=CC[C@H]2[C@@H]3CC=C4C[C@@H](O)CC[C@]4(C)[C@H]3[C@H](O)C[C@]12C | 15.1 µM | 14.8 µM | 12.7 µM | > 40 µM | > 40 µM | 5.64 µM | 76.3% | 4.4 µM | 114% |
| CC(C)[C@@H](C)[C@@]1(C)C[C@@H]1[C@@H](C)[C@H]1CC[C@H]2[C@H]3[C@H]([C@H](O)[C@H](O)[C@]12C)[C@@]1(C)CC[C@H](O)CC1=C[C@@H]3O | > 40 µM | 15.5 µM | > 40 µM | > 40 µM | > 40 µM | – | – | – | – |
| COc1cccc2c1C(=O)c1c(O)c3c(c(O)c1C2=O)C[C@@](O)(C(=O)CO)C[C@@H]3O[C@H]1C[C@H](N)[C@H](O)[C@H](C)O1 [DOXORUBICIN] | 0.87 µM | 0.9 µM | 0.94 µM | 0.55 µM | 2.78 µM | – | – | – | – |
| O=c1cc(N2CCOCC2)oc2c(-c3ccccc3)cccc12 [LY-294002] | – | – | – | – | – | 3.65 µM | – | 5.15 µM | – |
